Laboratory results reported in ChEMBL document CHEMBL4699440, “Comprehensive review on the anti-bacterial activity of 1,2,3-triazole hybrids” (Eur J Med Chem, 2019).

What was measured:
Assay type in all cases: functional
[1] = system: Staphylococcus epidermidis; assay: Antibacterial activity against methicillin-resistant Staphylococcus epidermidis 13-3
Staphylococcus aureus [2] = assay: Antibacterial activity against methicillin-resistant Staphylococcus aureus ATCC 33591
Proteus mirabilis = assay: Antibacterial activity against Proteus mirabilis 13-1
Enterococcus faecalis [3] = assay: Antibacterial activity against Enterococcus faecalis ATCC 51299
Klebsiella pneumoniae [4] = assay: Antibacterial activity against Klebsiella pneumoniae 7
Klebsiella pneumoniae [5] = assay: Antibacterial activity against Klebsiella pneumoniae ATCC 700603
Enterococcus faecalis [6] = assay: Antibacterial activity against Enterococcus faecalis ATCC 29212 after overnight incubation by CLSI M7-A9 based method
Escherichia coli [7] = assay: Antibacterial activity against Escherichia coli 14-11
Morganella morganii = assay: Antibacterial activity against Morganella morganii ATCC 25830
[8] = system: Stenotrophomonas maltophilia; assay: Antibacterial activity against Stenotrophomonas maltophilia ATCC 13636
[9] = system: Staphylococcus epidermidis; assay: Antibacterial activity against methicillin-sensitive Staphylococcus epidermidis ATCC 12228
Providencia rettgeri = assay: Antibacterial activity against Providencia rettgeri ATCC 31052
Proteus vulgaris = assay: Antibacterial activity against Proteus vulgaris ATCC 29905
Klebsiella aerogenes = assay: Antibacterial activity against Enterobacter aerogenes ATCC 13048
Staphylococcus aureus [10] = assay: Antibacterial activity against methicillin-sensitive Staphylococcus aureus ATCC 29213
Pseudomonas aeruginosa = assay: Antibacterial activity against Pseudomonas aeruginosa ATCC 27853
[11] = system: Acinetobacter calcoaceticus; assay: Antibacterial activity against Acinetobacter calcoaceticus ATCC 19606
Enterococcus faecium [12] = assay: Antibacterial activity against Enterococcus faecium ATCC 700221
Escherichia coli [13] = assay: Antibacterial activity against Escherichia coli ATCC 25922 after overnight incubation by CLSI M7-A9 based method
Serratia marcescens = assay: Antibacterial activity against Serratia marcescens ATCC 21074
Citrobacter freundii = assay: Antibacterial activity against Citrobacter freundii ATCC 43864
Enterobacter cloacae = assay: Antibacterial activity against Enterobacter cloacae ATCC 43560
Enterococcus faecium [14] = assay: Antibacterial activity against Enterococcus faecium 13-7

SMILES	MIC [1] [µg/mL]	MIC (Staphylococcus aureus [2]) [µg/mL]	MIC (Proteus mirabilis) [µg/mL]	MIC (Enterococcus faecalis [3]) [µg/mL]	MIC (Klebsiella pneumoniae [4]) [µg/mL]	MIC (Klebsiella pneumoniae [5]) [µg/mL]	MIC (Enterococcus faecalis [6]) [µg/mL]	MIC (Escherichia coli [7]) [µg/mL]	MIC (Morganella morganii) [µg/mL]	MIC [8] [µg/mL]	MIC [9] [µg/mL]	MIC (Providencia rettgeri) [µg/mL]	MIC (Proteus vulgaris) [µg/mL]	MIC (Klebsiella aerogenes) [µg/mL]	MIC (Staphylococcus aureus [10]) [µg/mL]	MIC (Pseudomonas aeruginosa) [µg/mL]	MIC [11] [µg/mL]	MIC (Enterococcus faecium [12]) [µg/mL]	MIC (Escherichia coli [13]) [µg/mL]	MIC (Serratia marcescens) [µg/mL]	also measured
C[C@H]1COc2c(N3CCN(C)CC3)c(F)cc3c(=O)c(C(=O)O)cn1c23.C[C@H]1COc2c(N3CCN(C)CC3)c(F)cc3c(=O)c(C(=O)O)cn1c23.O [LEVOFLOXACIN]	≤ 0.03	≤ 0.03	≤ 0.03	≤ 0.03	≤ 0.03	≤ 0.03	≤ 0.03	≤ 0.03	≤ 0.03	≤ 0.03	≤ 0.03	≤ 0.03	≤ 0.03	≤ 0.03	≤ 0.03	≤ 0.03	≤ 0.03	≤ 0.03	≤ 0.03	≤ 0.03	MIC (Citrobacter freundii): ≤ 0.03 µg/mL; MIC (Enterobacter cloacae): ≤ 0.03 µg/mL; MIC (Enterococcus faecium [14]): ≤ 0.03 µg/mL
COc1c(N2CCN(CCn3ccnn3)CC2)c(F)cc2c(=O)c(C(=O)O)cn(C3CC3)c12	≥ 0.5	≥ 0.5	≥ 0.5	≥ 0.5	≥ 0.5	≥ 0.5	≥ 0.5	≥ 0.5	≥ 0.5	≥ 0.5	≥ 0.5	≥ 0.5	≥ 0.5	≥ 0.5	≥ 0.5	≥ 0.5	≥ 0.5	≥ 0.5	≥ 0.5	≥ 0.5	MIC (Citrobacter freundii): ≥ 0.5 µg/mL; MIC (Enterobacter cloacae): ≥ 0.5 µg/mL; MIC (Enterococcus faecium [14]): ≥ 0.5 µg/mL
